# According to patent publication EP1145714A1, “DRUGS” (Takeda Chemical Industries, Ltd., priority 1998, dated 2000):
# Tested on: acute vomiting induced by a central emetic agent loperamide in dogs
# Assay: Acute vomiting induced by loperamide in dogs
# Format: in vivo, beagle dogs
# Details: loperamide 1 mg/kg subcutaneous
# Experimental: 3 male or female beagle dogs (7.7 to 12.7 kg) per one group were used. Loperamide was subcutaneously given at 1 mg/ml/kg. 2.5 hours prior to loperamide administration, a small amount of a feed was given to the animals. 30 minutes thereafter, predetermined doses of the compound No. 3 were orally given. Similarly, 0.5 % methyl cellulose solution was orally given to a control animal group under no fasting. Predetermined doses of naloxone and ondansetron were given intravenously and orally, respectively to the animals under fasting, 30 minutes prior to loperamide administration. The frequency of vomiting was counted, up to 3 hours after loperamide administration. The compound No. 3 was dissolved in 0.5 % methyl cellulose solution, for oral dosing at a ratio of 0.25 to 1 ml per 1 kg body weight. Additionally, naloxone was intravenously given in a solution at a concentration of 0.05 % w/v. An injection of ondansetron at a concentration of 0.2 % w/v was orally given. Still additionally, 0.5 % methyl cellulose solution was orally given at a ratio of 1 ml per 1 kg body weight. The data relating to the frequency of vomiting, the latency and the time period from the occurrence of vomiting to the termination thereof were statistically analyzed by the Dunnett test, with reference to the difference from the control group.
# The vomiting suppression ratio was calculated by the following formula. [Frequency of retching or vomiting in control] - [Frequency of retching or vomiting in animals dosed with compound No. 3] / [frequency of retching or vomiting in control] x 100 (%) [formula]
structure (smiles),measurement,setting,value
"C=CCN1CC[C@]23c4c5ccc(O)c4O[C@H]2C(=O)CC[C@@]3(O)[C@H]1C5 [Naloxone, naloxone, reference compound]",Vomiting suppression ratio,0.5 mg/kg i.v.,93 % b
same,B: Frequency of vomiting (mean ± SD),"0.5 mg/kg i.v., 3 hours",0.7 ± 0.7 b
same,C: Time period until first vomiting (minute; mean ± SD),"0.5 mg/kg i.v., 3 hours",2.61± 0.39b minute
same,D: Duration of vomiting (minute; mean ± SD),"0.5 mg/kg i.v., 3 hours",0.01 ± 0.01 b minute
same,Number of dogs with vomiting/number of tested dogs,"0.5 mg/kg i.v., 3 hours",1/3
same,Effect on vomiting (in words),0.5 mg/kg intravenous,almost completely suppressed
